Each structure is given as a SMILES string.

In one series the target is T1, CYP2B6 (Homo sapiens, UniProt P20813).
T1 sequence (P20813 1-491): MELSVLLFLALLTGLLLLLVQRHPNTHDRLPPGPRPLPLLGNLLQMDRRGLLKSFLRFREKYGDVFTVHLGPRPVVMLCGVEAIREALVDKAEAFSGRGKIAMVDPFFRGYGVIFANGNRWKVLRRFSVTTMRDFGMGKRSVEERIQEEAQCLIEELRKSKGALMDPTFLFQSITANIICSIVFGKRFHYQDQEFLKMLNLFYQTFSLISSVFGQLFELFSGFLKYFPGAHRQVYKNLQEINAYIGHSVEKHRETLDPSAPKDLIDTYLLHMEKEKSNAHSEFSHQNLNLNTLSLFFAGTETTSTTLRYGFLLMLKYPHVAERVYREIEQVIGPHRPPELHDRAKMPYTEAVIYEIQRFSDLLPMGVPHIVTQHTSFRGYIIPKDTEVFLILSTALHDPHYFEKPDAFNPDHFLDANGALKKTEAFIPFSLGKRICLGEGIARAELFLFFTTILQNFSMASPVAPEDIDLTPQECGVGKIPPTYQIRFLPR
Put plainly: Fluorimetric CYP inhibition assay, CYP2B6-EFC. The following applies: read-out: IC50 CYP2B6; substrate EFC.

Another series has as its target T2, CYP1A2 (Homo sapiens, UniProt P05177).
T2 sequence (P05177 1-516): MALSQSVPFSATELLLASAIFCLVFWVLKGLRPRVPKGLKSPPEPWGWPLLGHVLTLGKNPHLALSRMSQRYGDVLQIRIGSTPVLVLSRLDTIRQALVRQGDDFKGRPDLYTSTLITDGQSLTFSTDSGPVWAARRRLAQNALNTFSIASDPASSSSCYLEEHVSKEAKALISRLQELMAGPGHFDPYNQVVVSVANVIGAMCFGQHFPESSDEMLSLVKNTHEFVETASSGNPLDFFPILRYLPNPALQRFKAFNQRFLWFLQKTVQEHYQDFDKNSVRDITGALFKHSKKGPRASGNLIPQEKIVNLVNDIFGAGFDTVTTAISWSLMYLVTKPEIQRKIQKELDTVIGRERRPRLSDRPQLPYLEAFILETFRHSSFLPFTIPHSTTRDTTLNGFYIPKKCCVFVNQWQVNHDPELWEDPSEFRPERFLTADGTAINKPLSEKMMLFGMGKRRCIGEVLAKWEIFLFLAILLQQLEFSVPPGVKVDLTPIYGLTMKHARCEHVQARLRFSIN
Briefly: in vitro.

Series [1] deals with T3, CYP2C8 (Homo sapiens, UniProt P10632).
T3 sequence (P10632 1-490): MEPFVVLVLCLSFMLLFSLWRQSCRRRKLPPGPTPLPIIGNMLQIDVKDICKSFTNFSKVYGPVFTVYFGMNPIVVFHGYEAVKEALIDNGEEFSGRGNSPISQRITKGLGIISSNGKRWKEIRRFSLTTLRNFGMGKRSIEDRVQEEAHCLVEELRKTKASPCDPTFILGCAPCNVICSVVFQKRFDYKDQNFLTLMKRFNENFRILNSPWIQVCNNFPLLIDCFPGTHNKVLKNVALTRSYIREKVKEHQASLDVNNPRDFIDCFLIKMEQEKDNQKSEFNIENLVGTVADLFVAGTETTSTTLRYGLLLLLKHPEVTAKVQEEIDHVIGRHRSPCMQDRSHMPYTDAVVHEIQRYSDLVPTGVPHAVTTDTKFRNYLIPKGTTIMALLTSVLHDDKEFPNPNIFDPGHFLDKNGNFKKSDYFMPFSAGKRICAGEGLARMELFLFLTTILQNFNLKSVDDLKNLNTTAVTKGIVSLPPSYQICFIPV

The target in series [2] is T3, CYP2C8. Briefly: in vitro.
For the next series, the system named is Guinea pigs. Briefly: Hypolipidemic effect in Guinea pigs model (plasma TG, cholesterol, lipoproteins). In kind it is in vivo, Guinea pig. The following applies: Simvastatin table: gavage 10 mg/kg/bw, 21 days, n = 8. On the procedure:
• Guinea pigs (400-500 g) were obtained from Harlan (Israel) or Harlan (Netherlands). Animals were treated by gavage with Medica 16αα, Medica 16ββ and Simvastatin as indicated in 1% CMC for the specified treatment periods. During treatment period the animals were weighed and observed daily.
Non-fasted guinea pigs were anesthetized with ketamine (75 mg/kg body weight) and xylazine (6 mg/kg body weight), followed by S.C. abdominal injections of 2% lignocaine. Anesthetized animals were bled into tubes containing EDTA. Plasma chylomicrons were removed by centrifugation (20 min, 30K rpm, TST 55.5 rotor). Plasma TG was assayed by Roche/Hitachi kit. Plasma cholesterol was assayed by Roche Diagnostic's kit.
Chylomicrons-free plasma was subjected to continuous KBr-gradient centrifugation (24 h, 40K rpm, SW41 rotor), followed by fractionating gradient tubes into 0.5 ml fractions. TG, cholesterol and protein of each fraction were measured as described above. […]
Guinea pigs were treated by gavage with M16αα, M16ββ or with Simvastatin, weighed and observed daily. Plasma triglycerides (TG) and cholesterol, as well as plasma lipoproteins and their composition were examined on days 21 and 22 (as specified in the following tables) of the experiments, as described in Experimental procedures. As clearly shown by Table 3 and FIG. 1, treatment with M16αα decreases plasma triglycerides (TG).

For a further series, the target named is CYP2C9 (Homo sapiens, UniProt P11712). Briefly: Fluorimetric CYP inhibition assay, CYP2C9-MFC. The note with it: human, MFC; for inhibition at 0 μM: positive control 0.00 μM (second line); for inhibition at 0.01 μM: positive control 0.01 μM (first line); for inhibition at 0.02 μM: positive control 0.02 μM; for inhibition at 0.06 μM: positive control 0.06 μM; for inhibition at 1.67 μM: positive control 1.67 μM.
Sequence of CYP2C9 (P11712 whole entry): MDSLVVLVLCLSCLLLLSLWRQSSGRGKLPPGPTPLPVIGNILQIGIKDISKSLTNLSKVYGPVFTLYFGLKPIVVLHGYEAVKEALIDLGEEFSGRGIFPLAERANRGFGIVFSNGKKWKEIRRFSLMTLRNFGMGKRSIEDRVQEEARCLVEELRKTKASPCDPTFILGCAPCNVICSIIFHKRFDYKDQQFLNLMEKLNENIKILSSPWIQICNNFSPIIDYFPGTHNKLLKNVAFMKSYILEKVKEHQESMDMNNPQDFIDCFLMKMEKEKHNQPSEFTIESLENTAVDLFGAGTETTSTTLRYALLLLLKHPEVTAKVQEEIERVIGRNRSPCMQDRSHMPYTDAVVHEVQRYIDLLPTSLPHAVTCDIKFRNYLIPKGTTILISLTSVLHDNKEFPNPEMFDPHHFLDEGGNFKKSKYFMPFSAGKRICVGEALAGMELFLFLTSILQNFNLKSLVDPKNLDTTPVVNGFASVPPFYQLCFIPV

As usually defined, the IC50 is the concentration that inhibits the measured activity by half. With `N[C@@H]1C[C@H]1c1ccccc1` (racemic) [Tranylcypromine, reference compound], on CYP2B6, the IC50 was found to be 5.9 µM.

For orientation: inhibition means the change of the read-out against control, counted positive when it falls. Low values mean a weak effect, high ones a strong effect. As for `Cc1nc2c([nH]1)c(=O)n(C)c(=O)n2Cc1ccco1` [Furafylline, reference compound], at CYP1A2 (% Inhibition (set 1)), the inhibition at 5.56 μM worked out at 90%. For the same compound, the inhibition at 50 μM on CYP1A2 (% Inhibition (set 2)) was determined as 99%.

On to `O=c1c(O)c(-c2ccc(O)c(O)c2)oc2cc(O)cc(O)c12` [Quercetin, reference compound], for which the IC50 on CYP2C8 [1] was determined as 1.4 µM. At CYP2C8 [1] (0.05 μM), the “% Inhibition (set 2)” value was 0%. At CYP2C8 [2] (% Inhibition (set 1)), this compound registered an inhibition at 0.05 μM of 8%, an inhibition at 0.41 μM of 16%, an inhibition at 1.23 μM of 51% and an inhibition at 3.7 μM of 88%. At CYP2C8 [2] (% Inhibition (set 1)), this compound gave an inhibition at 11.11 μM of 100%, an inhibition at 33.33 μM of 100% and an inhibition at 100 μM of 100%. Further, at CYP2C8 [2] (% Inhibition (set 2)), the inhibition at 0.05 μM came out at 0%, the inhibition at 0.41 μM was 9%, the inhibition at 1.23 μM was 32% and the inhibition at 3.7 μM worked out at 89%. Also, on CYP2C8 [2] (% Inhibition (set 2)), the inhibition at 11.11 μM turned out to be 98%, the inhibition at 33.33 μM was determined as 100% and the inhibition at 100 μM turned out to be 100%.

Regarding `CCC(C)(C)C(=O)O[C@H]1C[C@@H](C)C=C2C=C[C@H](C)[C@H](CC[C@@H]3C[C@@H](O)CC(=O)O3)[C@H]21` [Simvastatin, reference compound], the “Plasma TG” value in the series on Guinea pigs was 83 ± 16 mg %. The Plasma cholesterol in the series with Guinea pigs (*p < 0.05) was 23 ± 2.0* mg %.

Take `Nc1ccc(S(=O)(=O)Nc2ccnn2-c2ccccc2)cc1` [Sulfaphenazole]: at CYP2C9 (% Inhibition (set 1)), the inhibition at 0 μM was found to be 0%, the inhibition at 0.01 μM is 0%, the inhibition at 0.02 μM was 3% and the inhibition at 0.06 μM was 11%. This compound also gave an inhibition at 1.67 μM against CYP2C9 (% Inhibition (set 1)) of 76%. Moreover, the inhibition at 5 μM at CYP2C9 (% Inhibition (set 1), positive control 5.00 μM) was 89%. Besides, on CYP2C9 (% Inhibition (set 2)), the inhibition at 0 μM was 0%, the inhibition at 0.01 μM came to 1%, the inhibition at 0.02 μM came to 3% and the inhibition at 0.06 μM turned out to be 6%. On CYP2C9 (% Inhibition (set 2)), the inhibition at 1.67 μM stood at 74%.

These data come from patent US20100240683A1, “COMBINATION THERAPY, COMPOSITION AND METHODS FOR THE TREATMENT OF CARDIOVASCULAR DISORDERS” (Syndromex Ltd., priority 2007, published 2010).
